These results are taken from patent US9045468B2, “2,5-methano- and 2,5-ethano-tetrahydrobenzazepine derivatives and use thereof to block reuptake of norepinephrine, dopamine, and serotonin” (Albany Molecular Research, Inc., priority 2010, dated 2015).

For test [1], the target named is hNET (Homo sapiens (Human), UniProt P23975). The test can be described thus: NET radioligand binding assay ([3H]nisoxetine, HEK-293 membranes). The note with it: recombinant HEK-293 membranes, [3H]nisoxetine; read-out: Binding Affinity (IC50, nM) NET. The method, then:
(§1) The medium was removed from the flasks and the cells rinsed with HBSS without Ca and without Mg. The cells were then incubated for 5-10 minutes in 10 mM Tris-Cl, pH 7.5, 5 mM EDTA before the cells were lifted with a combination of pipetting and scraping, as needed. The cell suspension was collected into centrifuge bottles and homogenized for 30 seconds with a Polytron homogenizer. The suspension was centrifuged for 30 minutes at 32,000×g, 4° C. The supernatant was decanted and the pellet resuspended and homogenized in 50 mM Tris-Cl, pH 7.5, 1 mM EDTA for 10 seconds. The suspension was then centrifuged again for 30 minutes at 32,000×g, 4° C. The supernatant was decanted and the pellet resuspended in 50 mM Tris-Cl, pH 7.5, 1 mM EDTA and briefly homogenized. A Bradford assay (Bio-rad) was performed and the membrane preparation diluted to 2 mg/ml with 50 mM Tris-Cl, pH 7.5, 1 mM EDTA. Aliquots were prepared, and then frozen and stored at −80° C.
Compounds were dissolved in 100% DMSO at a concentration 100 times the desired highest assay concentration, serially diluted 1:3 in 100% DMSO, and 1.0 μl/well of each solution was dispensed to a Nunc polypropylene, round bottom, 384-well plate. […] 50 μl/well of a 2× membrane preparation (0.4 mg/ml in 50 mM Tris-Cl, pH 7.5, 120 mM NaCl, 5 mM KCl) and 50 μl/well of a 2× radioligand solution (4 nM [^3H]nisoxetine in 50 mM Tris-Cl, pH 7.5, 120 mM NaCl, 5 mM KCl) were added to the well and the reaction incubated for 1 hour at room temperature. The contents of the assay plate were then transferred to a Millipore MultiscreenHTS GF/B filter plate which was pretreated with 0.5% PEI for at least one hour. The plate was vacuum filtered and washed with 7 washes of 100 μl/well 50 mM Tris-Cl, pH 7.5, 120 mM NaCl, 5 mM KCl chilled to 4° C. The filtration and washing were completed in less than 90 seconds. The plates were air-dried overnight, 12 μl/well of MicroScint scintillation fluid added, and the plates counted in a Trilux.
(§2) Each plate was run in triplicate, and the concentration response curve thus generated was fit using the four-parameter dose response equation, Y=Bottom+(Top-Bottom)/(1+10^((Log IC50−X)*HillSlope)) in order to determine the IC50 value for each compound. The radioligand concentration chosen for each assay corresponds to the Kd concentration determined through saturation binding analysis for each assay.

In test [2] the target is hSERT (Homo sapiens (Human), UniProt P31645). The test is described as follows: SERT radioligand binding assay ([125I]RTI-55, HEK-293 membranes). The note with it: recombinant HEK-293 membranes, [125I]RTI-55; read-out: Binding Affinity (IC50, nM) SERT. As to the method: as §1
Compounds were dissolved in 100% DMSO at a concentration 100 times the desired highest assay concentration, serially diluted 1:3 in 100% DMSO, and 0.4 μl/well of each solution was dispensed to a Nunc polypropylene, round bottom, 384-well plate. […] The contents of the assay plate were then transferred to a Millipore MultiscreenHTS GF/B filter plate which was pretreated with 0.5% PEI for at least one hour. The plate was vacuum filtered and washed with 7 washes of […] 50 mM Tris-Cl, pH 7.5, 120 mM NaCl, 5 mM KCl chilled to 4° C. The filtration and washing were completed in less than 90 seconds. The plates were air-dried overnight, 12 μl/well of MicroScint scintillation fluid added, and the plates counted in a Trilux.
as §2

The target of test [3] is hDAT (Homo sapiens (Human), UniProt Q01959). The test is described as follows: DAT radioligand binding assay ([125I]RTI-55, HEK-293 membranes). The note with it: recombinant HEK-293 membranes, [125I]RTI-55; read-out: Binding Affinity (IC50, nM) DAT. As to the method: as §1, with “Recombinant HEK-293 cells expressing either the hSERT, hDAT, or hNET proteins were harvested from T-175 flasks as follows. The medium” for “The medium”
Compounds were dissolved in 100% DMSO at a concentration 100 times the desired highest assay concentration, serially diluted 1:3 in 100% DMSO, and 0.4 μl/well of each solution was dispensed to a Nunc polypropylene, round bottom, 384-well plate. […] 20 ul/well of a 2× membrane preparation (12.5 μg/ml in 30 mM sodium phosphate buffer, pH 7.9 at 4° C.) and 20 μl/well of a 2× radioligand solution (250 pM [^125I]RTI-55 in 30 mM sodium phosphate buffer, pH 7.9 at 4° C.) were added to the well and the reaction incubated for 1 hour at room temperature. The contents of the assay plate were then transferred to a Millipore MultiscreenHTS GF/B filter plate which was pretreated with 0.5% PEI for at least one hour. The plate was vacuum-filtered and washed with 7 washes of 100 μl/well 50 mM Tris-Cl, pH 7.5, 120 mM NaCl, 5 mM KCl chilled to 4° C. The filtration and washing were completed in less than 90 seconds. The plates were air-dried overnight, 12 μl/well of MicroScint scintillation fluid added, and the plates counted in a Trilux.
as §2

Chain of hDAT (Q01959 whole entry): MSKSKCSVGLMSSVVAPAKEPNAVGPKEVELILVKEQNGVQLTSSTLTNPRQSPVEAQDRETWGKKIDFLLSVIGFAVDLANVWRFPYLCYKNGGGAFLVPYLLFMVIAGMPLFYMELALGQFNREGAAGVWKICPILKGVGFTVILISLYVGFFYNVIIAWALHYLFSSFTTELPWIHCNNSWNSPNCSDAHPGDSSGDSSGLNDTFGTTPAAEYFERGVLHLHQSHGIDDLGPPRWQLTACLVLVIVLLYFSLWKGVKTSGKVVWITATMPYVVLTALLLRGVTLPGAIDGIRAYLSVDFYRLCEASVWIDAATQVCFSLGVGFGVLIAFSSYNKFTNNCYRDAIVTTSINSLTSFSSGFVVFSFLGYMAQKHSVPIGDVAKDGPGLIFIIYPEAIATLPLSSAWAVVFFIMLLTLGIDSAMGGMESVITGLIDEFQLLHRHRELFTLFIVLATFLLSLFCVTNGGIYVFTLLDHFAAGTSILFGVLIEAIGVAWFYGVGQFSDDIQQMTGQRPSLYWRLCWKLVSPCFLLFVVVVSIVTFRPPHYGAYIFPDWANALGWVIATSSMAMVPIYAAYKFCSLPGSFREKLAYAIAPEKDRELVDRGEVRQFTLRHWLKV
Chain of hSERT (P31645 whole entry): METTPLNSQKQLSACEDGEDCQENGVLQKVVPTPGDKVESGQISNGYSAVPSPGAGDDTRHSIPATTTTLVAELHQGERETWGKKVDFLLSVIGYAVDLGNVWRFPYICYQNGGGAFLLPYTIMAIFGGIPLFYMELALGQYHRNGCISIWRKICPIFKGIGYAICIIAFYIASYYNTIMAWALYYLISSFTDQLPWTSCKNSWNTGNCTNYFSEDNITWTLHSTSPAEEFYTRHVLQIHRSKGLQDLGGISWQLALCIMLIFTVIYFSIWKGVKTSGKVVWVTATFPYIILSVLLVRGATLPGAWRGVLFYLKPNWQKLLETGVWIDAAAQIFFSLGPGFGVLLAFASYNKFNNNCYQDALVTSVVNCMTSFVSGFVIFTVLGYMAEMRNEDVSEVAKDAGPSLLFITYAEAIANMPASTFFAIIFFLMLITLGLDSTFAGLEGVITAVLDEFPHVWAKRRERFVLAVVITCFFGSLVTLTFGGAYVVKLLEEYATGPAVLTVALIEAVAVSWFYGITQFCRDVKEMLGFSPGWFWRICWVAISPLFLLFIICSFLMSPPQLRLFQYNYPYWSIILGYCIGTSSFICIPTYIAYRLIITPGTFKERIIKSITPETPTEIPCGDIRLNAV
Chain of hNET (P23975 whole entry): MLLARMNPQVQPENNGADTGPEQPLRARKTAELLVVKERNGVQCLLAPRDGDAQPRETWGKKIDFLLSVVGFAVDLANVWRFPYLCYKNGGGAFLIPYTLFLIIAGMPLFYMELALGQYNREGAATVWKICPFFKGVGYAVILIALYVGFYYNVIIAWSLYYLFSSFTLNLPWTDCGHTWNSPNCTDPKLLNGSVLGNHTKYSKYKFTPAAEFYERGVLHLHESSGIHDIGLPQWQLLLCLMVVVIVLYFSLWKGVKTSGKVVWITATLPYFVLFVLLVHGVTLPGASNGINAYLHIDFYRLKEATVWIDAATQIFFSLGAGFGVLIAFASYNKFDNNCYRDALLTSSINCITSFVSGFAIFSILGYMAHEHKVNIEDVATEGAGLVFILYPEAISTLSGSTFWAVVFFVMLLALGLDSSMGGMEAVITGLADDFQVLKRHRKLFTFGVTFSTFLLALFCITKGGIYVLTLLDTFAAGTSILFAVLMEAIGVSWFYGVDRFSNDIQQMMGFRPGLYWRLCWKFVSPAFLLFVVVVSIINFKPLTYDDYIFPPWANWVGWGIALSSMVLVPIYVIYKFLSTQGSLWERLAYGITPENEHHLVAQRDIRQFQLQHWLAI

By IC50 is commonly meant the midpoint of a concentration-inhibition curve. For the compound `COc1ccc2c(c1)CN1CCC2(c2ccc(Cl)cc2)C1` (racemic) [Example 1, rac-5-(4-chlorophenyl)-8-methoxy-2,5-methano-2,3,4,5-tetrahydro-1H-benzo[c]azepine], the results for the IC50 in test [1] and in test [2] were 675 nM and 74.2 nM, respectively.
Take `Oc1ccc2c(c1)CN1CCC2(c2ccc(Cl)cc2)C1` (racemic) [Example 2, rac-5-(4-chlorophenyl)-2,5-methano-2,3,4,5-tetrahydro-1H-benzo[c]azepin-8-ol]: in test [2], the IC50 was determined as 126 nM.
Regarding `FC(F)(F)c1nnc2ccc(-c3ccc4c(c3)CN3CCC4(c4ccc(Cl)cc4)C3)cn12` (racemic) [Example 4, rac-5-(4-chlorophenyl)-2,5-methano-8-(3-(trifluoromethyl)-[1,2,4]triazolo[4,3-a]pyridin-6-yl)-2,3,4,5-tetrahydro-1H-benzo[c]azepine], the IC50 in test [1] came to 70.5 nM; in test [3] it was 603 nM.
Take `FC(F)(F)c1ccc(-c2ccc3c(c2)CN2CCC3(c3ccc(Cl)cc3)C2)nn1` (racemic) [Example 5, rac-5-(4-chlorophenyl)-2,5-methano-8-(6-(trifluoromethyl)pyridazin-3-yl)-2,3,4,5-tetrahydro-1H-benzo[c]azepine]: the IC50 is 274 nM in test [1], 74.2 nM in test [3] and 10.1 nM in test [2].
For `N#Cc1ccc(-c2ccc3c(c2)CN2CCC3(c3ccc(Cl)cc3)C2)cc1` (racemic) [Example 8, rac-4-(5-(4-chlorophenyl)-2,5-methano-2,3,4,5-tetrahydro-1H-benzo[c]azepin-8-yl)benzonitrile], in that order: 1210 nM, 450 nM and 16.6 nM.
For the compound `CS(=O)(=O)c1ccc(-c2ccc3c(c2)CN2CCC3(c3ccc(Cl)cc3)C2)cc1` (racemic) [Example 9, rac-5-(4-chlorophenyl)-2,5-methano-8-(4-(methylsulfonyl)phenyl)-2,3,4,5-tetrahydro-1H-benzo[c]azepine], the concentration for half-maximal inhibition (IC50) in test [1] is 303 nM; in test [3] it was 435 nM; in test [2], 23.5 nM.
For `Clc1ccc(C23CCN(Cc4cc(-c5ccc6ncnn6c5)ccc42)C3)cc1` (single isomer, unassigned) [3(+), 8-([1,2,4]triazolo[1,5-a]pyridin-6-yl)-5-(4-chlorophenyl)-2,5-methano-2,3,4,5-tetrahydro-1H-benzo[c]azepine], in that order: 817 nM, 340 nM and 9.4 nM.
For `Clc1ccc(C23CCN(Cc4cc(-c5ccc6ncnn6c5)ccc42)C3)cc1` (single isomer, unassigned) [3(−), 8-([1,2,4]triazolo[1,5-a]pyridin-6-yl)-5-(4-chlorophenyl)-2,5-methano-2,3,4,5-tetrahydro-1H-benzo[c]azepine], the IC50 in test [1] came to 443 nM; in test [3], 141 nM; in test [2], 5.2 nM.
For `FC(F)Oc1ccc(-c2ccc3c(c2)CN2CCC3(c3ccc(Cl)cc3)C2)nn1` (single isomer, unassigned) [6(+), 5-(4-chlorophenyl)-8(6-(difluoromethoxy)pyridazin-3-yl)-2,5-methano-2,3,4,5-tetrahydro-1H-benzo[c]azepine], in that order: 1170 nM, 1060 nM and 19.3 nM.
As to `Oc1ccc(-c2ccc3c(c2)CN2CCC3(c3ccc(Cl)cc3)C2)nn1` (single isomer, unassigned) [7(+), 6-(5-(4-chlorophenyl)-2,5-methano-2,3,4,5-tetrahydro-1H-benzo[c]azepin-8-yl)pyridazin-3-ol], the values for the IC50 in test [1], in test [3] and in test [2] were 674 nM, 148 nM and 62.5 nM, respectively.
As to `Clc1ccc(C23CCN(Cc4cc(-c5ccc6ncnn6c5)ccc42)C3)cc1Cl` (single isomer, unassigned) [10(+), 8-([1,2,4]triazolo[1,5-a]pyridin-6-yl)-5-(3,4-dichlorophenyl)-2,5-methano-2,3,4,5-tetrahydro-1H-benzo[c]azepine], the IC50 in test [1] came out at 242 nM; in test [3], 49.5 nM; in test [2], 4.6 nM.
Regarding `Clc1ccc(C23CCN(Cc4cc(-c5ccc6ncnn6c5)ccc42)C3)cc1Cl` (single isomer, unassigned) [10(−), 8-([1,2,4]triazolo[1,5-a]pyridin-6-yl)-5-(3,4-dichlorophenyl)-2,5-methano-2,3,4,5-tetrahydro-1H-benzo[c]azepine], the IC50 in test [1] was found to be 73.7 nM; in test [3], 37.5 nM; in test [2], 5.6 nM.
`O=c1[nH]c2ccc(-c3ccc4c(c3)CN3CCC4(c4ccc(Cl)c(Cl)c4)C3)cc2o1` (single isomer, unassigned) [11(+), 8-(2-oxo-2,3-dihydrobenzo[d]oxazol-6-yl)-5-(3,4-dichlorophenyl)-2,5-methano-2,3,4,5-tetrahydro-1H-benzo[c]azepine]: the IC50 in test [1] amounted to 369 nM; in test [3], 50 nM; in test [2] it was 3.5 nM.
Taken in the same sequence, the figures for `O=c1[nH]c2ccc(-c3ccc4c(c3)CN3CCC4(c4ccc(Cl)c(Cl)c4)C3)cc2o1` (single isomer, unassigned) [11(−), 8-(2-oxo-2,3-dihydrobenzo[d]oxazol-6-yl)-5-(3,4-dichlorophenyl)-2,5-methano-2,3,4,5-tetrahydro-1H-benzo[c]azepine] were 92.4 nM, 19.6 nM and 3.9 nM.
For `Fc1ccc(C23CCN(Cc4cc(-c5ccc6ncnn6c5)ccc42)C3)cc1Cl` (single isomer, unassigned) [55(+), 8-([1,2,4]triazolo[1,5-a]pyridin-6-yl)-5-(3-chloro-4-fluorophenyl)-2,5-methano-2,3,4,5-tetrahydro-1H-benzo[c]azepine], in that order: 956 nM, 121 nM and 18.6 nM.
As to `Fc1ccc(C23CCN(Cc4cc(-c5ccc6ncnn6c5)ccc42)C3)cc1Cl` (single isomer, unassigned) [55(−), 8-([1,2,4]triazolo[1,5-a]pyridin-6-yl)-5-(3-chloro-4-fluorophenyl)-2,5-methano-2,3,4,5-tetrahydro-1H-benzo[c]azepine], the values for the IC50 in test [1], in test [3] and in test [2] were 175 nM, 35.3 nM and 2.2 nM, respectively.
